By AUC is commonly meant the area under the concentration-time curve, a measure of exposure. What is called fraction unbound is free concentration divided by total concentration.

Consider 3 compounds from ChEMBL document CHEMBL4477215, “Specific Correction of Alternative Survival Motor Neuron 2 Splicing by Small Molecules: Discovery of a Potential Novel Medicine To Treat Spinal Muscular Atrophy” (J Med Chem, 2016).

Calls of active or inactive are those of the source. The rule behind the calls is not given here.

For data set [1], the system named is Mus musculus. In words: Inhibition of mRNA splicing of SMN2 exon 7 in neonatal delta7 mouse harboring FVB.Cg-Tg(SMN2 delta7)4299Ahmb Tg(SMN2)-89Ahmb Smn1tm1Msd/J assessed as increase in SMN protein level in quadriceps at 3 mg/kg, ip qd administered from postnatal day 3 to postnatal day 9 measured 1 hr after last dose by HTRF assay relative to control. The format is functional. Also noted: scale not given: the % may be the effect or the level left. On the technique in general: TR-FRET usually uses a lanthanide donor and a delayed reading to cut background.

In data set [2] the test system is Mus musculus. In words: Increase in body weight of delta7 mouse harboring FVB.Cg-Tg(SMN2 delta7)4299Ahmb Tg(SMN2)89Ahmb Smn1tm1Msd/J assessed as mouse body weight beyond PND50 at 1 to 3 mg/kg, ip qd administered from PND3 to PND23 followed by 1 to 3 mg/kg/day via oral gavage from PND24 to PND65. The format is functional, organism-based.
Data set [3] relates to Mus musculus. Nature of the data set: Increase in survival of delta7 mouse harboring FVB.Cg-Tg(SMN2 delta7)4299Ahmb Tg(SMN2)89Ahmb Smn1tm1Msd/J assessed as mouse survival beyond PND50 at 1 to 3 mg/kg, ip qd administered from PND3 to PND23 followed by 1 to 3 mg/kg/day via oral gavage from PND24 to PND65. The format is functional.
Data set [4] is described as follows: Unbound AUC in plasma of C/C-allele mouse harboring FVB.129(B6)-Smn1tm5(Smn1/SMN2)Mrph/J at 10 mg/kg, po. In kind it is ADME, organism-based. Conditions: in vivo.
For data set [5], the species on record is Homo sapiens. In words: Inhibition of mRNA splicing of SMN2 exon 7 in fibroblasts derived from human SMA type 1/2/3 patient assessed as increase in SMN protein level after 48 hrs by HTRF assay.
For data set [6], the system named is Mus musculus. In words: Increase in body weight of delta7 mouse harboring FVB.Cg-Tg(SMN2 delta7)4299Ahmb Tg(SMN2)89Ahmb Smn1tm1Msd/J assessed as mouse body weight beyond PND60 at 3 to 10 mg/kg, ip qd administered from PND3 to PND23 followed by 3 to 10 mg/kg/day via oral gavage from PND24 to PND65. In kind it is functional, organism-based.
Data set [7] in a line: Mutagenicity in Salmonella typhimurium TA102 assessed as increase in revertant colonies after 2 days in presence of rat liver S9 fraction by Ames test relative to control. The format is toxicity. The following applies: salmonella enterica subsp. enterica serovar typhimurium, s9, 48 h. (The Ames test uses bacterial strains that need an amino acid and regain growth without it when mutated back.)

The subject of data set [8] is Mus musculus. Nature of the data set: Inhibition of mRNA splicing of SMN2 exon 7 in neonatal delta7 mouse harboring FVB.Cg-Tg(SMN2 delta7)4299Ahmb Tg(SMN2)-89Ahmb Smn1tm1Msd/J assessed as increase in SMN protein level in brain at 3 mg/kg, ip qd administered from postnatal day 3 to postnatal day 9 measured 1 hr after last dose by HTRF assay relative to control. The format is functional. Also noted: scale not given: the % may be the effect or the level left.

Data set [9] in a line: Unbound AUC in plasma of wild type mouse at 3 mg/kg, ip measured on postnatal day 10. The format is ADME, organism-based. Conditions: in vivo.
Data set [10] can be described thus: AUC in plasma of wild type mouse at 3 mg/kg, ip measured on postnatal day 10. In kind it is ADME, organism-based.
Data set [11] can be described thus: Fraction unbound in human plasma. In kind it is ADME, cell-free.
Data set [12] deals with Mus musculus. Nature of the data set: Increase in survival of delta7 mouse harboring FVB.Cg-Tg(SMN2 delta7)4299Ahmb Tg(SMN2)89Ahmb Smn1tm1Msd/J assessed as mouse survival beyond PND60 at 3 to 10 mg/kg, ip qd administered from PND3 to PND23 followed by 3 to 10 mg/kg/day via oral gavage from PND24 to PND65. The format is functional.
The test system of data set [13] is Mus musculus. In words: Inhibition of mRNA splicing of SMN2 exon 7 in C/C-allele mouse harboring FVB.129(B6) Smn1tm5(Smn1/SMN2)Mrph/J assessed as increase in SMN protein level in quadriceps at 1 mg/kg, po qd for 10 days measured 1 hr after 10th dose by HTRF assay relative to control. In kind it is functional. More on the design: scale not given: the % may be the effect or the level left.

The test system of data set [14] is Mus musculus. In words: Inhibition of mRNA splicing of SMN2 exon 7 in neonatal delta7 mouse harboring FVB.Cg-Tg(SMN2 delta7)4299Ahmb Tg(SMN2)-89Ahmb Smn1tm1Msd/J assessed as increase in SMN protein level in quadriceps administered ip qd dosed from postnatal day 3 to postnatal day 9 measured 1 hr after last dose by HTRF assay. In kind it is functional, organism-based.

The test system of data set [15] is Mus musculus. Nature of the data set: Increase in survival of ip dosed delta7 mouse harboring FVB.Cg-Tg(SMN2 delta7)4299Ahmb Tg(SMN2)89Ahmb Smn1tm1Msd/J administered intraperitoneally once daily from PND3 to PND23 followed by oral gavage dosing qd from PND24 to PND65. The format is functional, organism-based.
The test system of data set [16] is Mus musculus. Nature of the data set: Inhibition of mRNA splicing of SMN2 exon 7 in neonatal delta7 mouse harboring FVB.Cg-Tg(SMN2 delta7)4299Ahmb Tg(SMN2)-89Ahmb Smn1tm1Msd/J assessed as increase in SMN protein level in quadriceps at 0.1 mg/kg, ip qd administered from postnatal day 3 to postnatal day 9 measured 1 hr after last dose by HTRF assay relative to control. Also noted: scale not given: the % may be the effect or the level left. In kind it is functional.

Data set [17] in a line: Unbound AUC in plasma of wild type mouse at 1 mg/kg, ip measured on postnatal day 10. The format is ADME, organism-based. The following applies: in vivo.
Data set [18] concerns Mus musculus. Nature of the data set: Increase in survival of delta7 mouse harboring FVB.Cg-Tg(SMN2 delta7)4299Ahmb Tg(SMN2)89Ahmb Smn1tm1Msd/J at 0.03 to 0.1 mg/kg, ip qd administered from PND3 to PND23 followed by 0.03 to 0.1 mg/kg/day via oral gavage from PND24 to PND65. In kind it is functional, organism-based.
The test system of data set [19] is Mus musculus. Nature of the data set: Inhibition of mRNA splicing of SMN2 exon 7 in neonatal delta7 mouse harboring FVB.Cg-Tg(SMN2 delta7)4299Ahmb Tg(SMN2)-89Ahmb Smn1tm1Msd/J assessed as increase in SMN protein level in brain at 0.1 mg/kg, ip qd administered from postnatal day 3 to postnatal day 9 measured 1 hr after last dose by HTRF assay relative to control. Also noted: scale not given: the % may be the effect or the level left. The format is functional.

Data set [20] has as its system Mus musculus. In words: Increase in body weight of delta7 mouse harboring FVB.Cg-Tg(SMN2 delta7)4299Ahmb Tg(SMN2)89Ahmb Smn1tm1Msd/J at 0.03 to 0.1 mg/kg, ip qd administered from PND3 to PND23 followed by 0.03 to 0.1 mg/kg/day via oral gavage from PND24 to PND65. In kind it is functional, organism-based.
Data set [21] can be described thus: AUC in plasma of wild type mouse at 1 mg/kg, ip measured on postnatal day 10. The format is ADME, organism-based.
The test system of data set [22] is Mus musculus. Nature of the data set: Inhibition of mRNA splicing of human SMN2 exon 7 in transgenic SMA C/C-allele mouse brain administered orally qd for 10 days. In kind it is functional, organism-based.
The species named for data set [23] is Homo sapiens. Nature of the data set: Inhibition of mRNA splicing of SMN2 exon 7 in fibroblasts derived from human SMA type 1 patient assessed as increase in SMN protein level at 0.01 to 10 uM by HTRF assay.
The test system of data set [24] is Mus musculus. In words: Inhibition of mRNA splicing of human SMN2 exon 7 in transgenic SMA C/C-allele mouse brain assessed as increase in SMN protein level administered orally qd for 10 days. The format is functional, organism-based.
The species entered for data set [25] is Homo sapiens. In words: Inhibition of mRNA splicing of SMN2 exon 7 in spinal motor neurons derived from human SMA type 1/2 patient induced pluripotent stem cells assessed as increase in SMN protein level at 0.01 to 1 uM by HTRF assay. More on the design: scale not given: the % may be the effect or the level left.

In the case of `Cc1cn2cc(-c3cc(=O)n4cc(N5CCN(C)CC5)ccc4n3)cc(C)c2n1`, the Activity in the data set with Mus musculus [1] was 130%; in data set [7], “Non-Toxic”; with Mus musculus [8], 162%; in the data set with Mus musculus [13] it was 28%; in the data set with Mus musculus [15], “Dose-dependent effect”. Also, the result with Mus musculus [2] and in the data set with Mus musculus [6] was Active. Besides, the Survival in the data set on Mus musculus [3] and in the data set with Mus musculus [12] was 80 - 90% in each case. Also, the figures for the fAUC in [4] and in data set [9] were 400 ng·h/mL and 208 ng·h/mL, respectively. Further, the EC1.5 in the data set listed under Homo sapiens [5] was in the range of 14 to 55 nM. Further, in [10], the AUC amounted to 1300 ng·h/mL. The compound further had an unbound share (fraction unbound) in data set [11] of 0.11. Also, the inhibition result in the data set on Mus musculus [14] was “Dose-dependent effect”.

`Cc1cn2cc(-c3cc(=O)n4cc(N5CCN(C)CC5)ccc4n3)cc(F)c2n1`: the values for the fAUC in data set [4] and in data set [17] were 450 ng·h/mL and 721 ng·h/mL, respectively. The EC1.5 in the data set listed under Homo sapiens [5] was determined as 40 nM. The Activity is on record as 107% in the data set on Mus musculus [16], “Non-Toxic” in data set [7], 40% in the data set with Mus musculus [13] and 72% with Mus musculus [19]. In data set [11], the free fraction (fraction unbound) came out at 0.22. The outcome with Mus musculus [18] and with Mus musculus [20] was Active. Further, in the data set on Mus musculus [14], the inhibition entry was “Dose-dependent effect”. Also, in [21], the AUC came out at 4300 ng·h/mL.

With `CCc1nc(C)cn2nc(-c3cc(=O)n4cc(C5CCN(C)CC5)cc(C)c4n3)cc12`, the Activity in the data set on Mus musculus [1] is 160%; in data set [7] it was “Non-Toxic”; with Mus musculus [8], 135%; with Mus musculus [13], 30%; with Mus musculus [15], “Dose-dependent effect”; in the data set filed under Homo sapiens [25], 60 to 80%. Also, the result with Mus musculus [2] and in the data set with Mus musculus [6] was Active. Moreover, the inhibition entry in the data set on Mus musculus [22], with Mus musculus [24] and in the data set with Mus musculus [14] was “Dose-dependent effect” each time. For the same compound, the Survival in the data set on Mus musculus [3] and in the data set with Mus musculus [12] was 80 - 90% throughout. In addition, the fAUC was 660 ng·h/mL in data set [4] and 118 ng·h/mL in data set [9]. Besides, the EC1.5 in the data set filed under Homo sapiens [5] came out at 87 nM. Moreover, in data set [10], the AUC was found to be 5900 ng·h/mL. The inhibition result in the data set filed under Homo sapiens [23] was “Active”. In addition, in data set [11], the unbound share (fraction unbound) came out at 0.13.
